Measurements: patent US8044042B2, “Thienotriazolodiazepine compound and medicinal use thereof” (Mitsubishi Tanabe Pharma Corporation, priority 2005, dated 2011)
Where two headings read alike, the source gives them in different places.

Assays:
[1] = test system: CD28-dependent T cell growth; assay: Mouse T cell proliferation stimulated with anti-CD28 antibody and PMA (tritiumthymidine uptake); format: cell-based; conditions: for IC50: T-cell, BALB/c mouse T cells, 10 ng/mL PMA and 250 ng/mL anti-CD28 antibody, tritiumthymidine uptake, read-out: CD28-dependent T cell growth suppressive action (IC50); for CD28-dependent T cell growth suppressive action (in words): mouse T cells stimulated with PMA and anti-CD28 antibody
Experimental: The spleen was aseptically isolated from 6-7-week-old male BALB/c mice (CHARLES RIVER LABORATORIES JAPAN, INC.), and splenocyte suspension was prepared using RPMI1640 medium (manufactured by Sigma-Aldrich Ltd.). After hemolysis by a hypotonic treatment using a mixed solution of 0.83% aqueous ammonium chloride and Tris-HCl buffer (pH 7.65) at 9:1, a T cell concentrated fraction was obtained using a T cell concentrated column (manufactured by R&D systems). A cell suspension prepared using RPMI1640 medium containing 10% fetal calf serum (FCS, manufactured by Sigma-Aldrich Ltd.) was added to a flat-bottomed 96 well microtest plate (manufactured by Becton, Dickinson and Company) at 5×10^5 cells/well. Furthermore, a test compound diluted with a medium to the final concentration of 1-10000 nmol/L, 10 ng/mL PMA (manufactured by Sigma-Aldrich Ltd.) and 250 ng/mL anti-CD28 antibody (manufactured by BD pharmingen) were added, and the mixture was cultured under the conditions of 37° C., 5% carbon dioxide, 95% air for 20 hr. After the completion of culture, tritiumthymidine (specific activity: […], manufactured by MP Biochemicals) was added at 18.5 kBq/well, and the mixture was further cultured for 4 hr. Then, the cells were recovered in a glass fiber filter using a cell harvester (manufactured by Molecular Devices Corp.), the radioactivity taken into the cells was measured using a plate scintillation counter (microbeta 1460, manufactured by PerkinElmer), based on which the mouse T cell growth induced by stimulation with PMA and anti-CD28 antibody was measured. To be specific, suppressing rate (%)=(1−(radioactivity (cpm) of well added with test compound)/(radioactivity (cpm) of well without addition of test compound))×100 was calculated from the average amount of tritiumthymidine uptake (cpm) of T cells in each well added with various concentrations of test compound. In addition, based on the dose response curve obtained by plotting the average tritiumthymidine uptake amount (cpm) or suppressing rate on the vertical axis and the concentration on the transverse axis, the concentration of the compound (IC50) suppressing the value to 50% of that of the control group was determined by nonlinear regression.

[2] = test system: Lupus Nephritis in MRL/MpJ-lpr/lpr Mouse; assay: Lupus nephritis in spontaneous systemic lupus erythematosus model MRL/MpJ-lpr/lpr mouse; format: in vivo; conditions: for urine protein score (mean ± SE): 4 weeks after administration, medium group 2.8 ± 0.2, P <0.05
Experimental: The compound of the present invention or a pharmaceutically acceptable salt thereof was suspended or dissolved in 0.5% carboxymethylcellulose, and repetitively administered orally to male MRL/MpJ-lpr/lpr mice at 16 weeks after birth (CHARLES RIVER LABORATORIES JAPAN, INC.), that had developed lupus nephritis, at a dose of 1 and 3 mg/kg body weight for 4 weeks using an oral gavage needle. During the dosing period, urine-protein level was scored once a week using Ames urine test paper (Albustix (registered trademark), Bayer, Ltd.•Sankyo Corp.). As regards the urine protein levels, each group (n=10) was evaluated using an average value and mean error, with a group administered only with a vehicle being control, and Dunnett's test was used for statistical analysis, wherein p value of 0.05 or below was determined to be significant.

[3] = test system: TYPE II Collagen-Induced Arthritis in DBA/1J Mouse; assay: Type II collagen-induced arthritis in DBA/1J mouse; format: in vivo; conditions: 840 h
Experimental: Bovine Type II collagen (purchased from collagen technical workshop) (100-200 μg) was mixed with complete Freund's adjuvant (manufactured by Sigma-Aldrich Ltd.) containing killed tuberculosis H37Ra. Using the resulting emulsion, 6 to 7-week-old male DBA/1J mice (CHARLES RIVER LABORATORIES JAPAN, INC.) were subcutaneously immunized at the tail root twice at 3 week intervals, whereby arthritis was developed. A test compound was suspended or dissolved in 0.5% carboxymethylcellulose (manufactured by Sigma-Aldrich Ltd.), and repetitively administered orally at a dose of 0.1-30 mg/kg body weight using an oral gavage needle for 2 weeks from the day of booster. As to this model, the symptoms of arthritis of four limbs were evaluated based on the following judgment criteria using the scores of from 0 to 4. The arthritis score of each mouse was shown by the total of the scores of four limbs (maximum: 16 points).
As regards the arthritis score, each group (n=5-6) was evaluated using an average value and mean error, with a group administered only with a vehicle being control, and Mann-Whitney U test was used for statistical analysis, wherein p value of 0.05 or below was determined to be significant. In the following, the suppressive action of the compound of the present invention on mouse collagen induced arthritis is shown by the suppressing rate (%) (1−(average arthritis score of compound administration group)/(average arthritis score of control group)×100) calculated from the average arthritis score at 35 days after the primary immunization.

[4] = test system: Mouse Graft-Versus-Host Reaction (GvHR); assay: Mouse graft-versus-host reaction (GvHR); format: in vivo; conditions: 30 mg/kg oral for 28 days from splenocyte injection; P <0.05 vs vehicle
Experimental: Cyclophosphamide (manufactured by Shionogi & Co., Ltd.) is administered to male BDF1 recipient mouse (8-week-old, CHARLES RIVER LABORATORIES JAPAN, INC.) at a dose of 300 mg/kg from the tail vein as a pretreatment at 24 hr prior to injection of spleen cells. The spleen was aseptically isolated from male C57BL/6 donor mouse (8-week-old, CHARLES RIVER LABORATORIES JAPAN, INC.), minced in RPMI1640 medium (manufactured by Sigma-Aldrich Ltd.), and passed through a stainless mesh to give a splenocyte single cell suspension. After removal of red blood cells by a hypotonic treatment using a mixed solution of 0.83% aqueous ammonium chloride and Tris-HCl buffer (pH 7.65) at 9:1, splenocytes were washed and suspended in physiological saline to give a splenocyte suspension. The prepared cells were injected at 1×10^8 cells/mouse into the tail vein to induce acute GvHR. The compound of the present invention or a pharmaceutically acceptable salt thereof was suspended or dissolved in 0.5% carboxymethylcellulose, and repetitively administered orally at a dose of 3-30 mg/kg body weight for 28 days from the day of splenocyte injection, and the influence on the survival time was evaluated. After induction of acute GvHR, the survival of each individual was determined every day, and the day of confirmed death was taken as the survival time of each individual. As for the survival time, log-rank test analysis was performed using the group administered with vehicle alone as a control, and the multiplicity was adjusted by the Holm's method, wherein p value of 0.05 or below was determined to be significant.

[5] = test system: Biphasic Auricular Edema in Egg Albumin-Induced Mouse; assay: Egg albumin-induced mouse biphasic auricular edema; format: in vivo; conditions: for suppressing rate (%) of auricular edema: 10 mg/kg oral for 3 days, 24 hr later, P <0.05; for suppressive action on edema (in words): 10 mg/kg, 24 hr after induction with egg albumin
Experimental: Using saline (0.5 ml) containing egg albumin (10 μg, manufactured by Sigma-Aldrich Ltd.) and 1 mg of aluminum hydroxide gel, 6 to 7-week-old male BALB/c mice (CHARLES RIVER LABORATORIES JAPAN, INC.) were intraperitoneally immunized. Two weeks later, egg albumin (1.25 μg) was intradermally injected into the auricle of the mice for challenge, whereby biphasic auricular edema was induced 1 hr and 24 hr after the challenge. The compound of the present invention or a pharmaceutically acceptable salt thereof was suspended or dissolved in 0.5% carboxymethylcellulose, and repetitively administered orally at a dose of 0.01-30 mg/kg body weight for 3 days, from 2 days before the antigen challenge to the day of challenge, using an oral gavage needle. As for this model, the thickness of the auricle of the mouse was measured using a dial gauge (manufactured by Ozaki MFG. Co. Ltd.) and used as an index of auricular edema. As regards the thickness of the auricle, each group (n=8) was evaluated using an average value and mean error, with a group administered only with a vehicle being control, and t-test was used for statistical analysis, wherein p value of 0.05 or below was determined to be significant.

[6] = test system: Mouse Skin Allograft Survival; assay: Mouse skin allograft survival; format: in vivo; conditions: for median survival time of skin graft: vehicle 9.5
Experimental: A tail skin graft (4×7 mm) of 5- to 7-week-old male AKR mouse (KYUDO Co. Ltd. was) was transplanted on the back of 5- to 7-week-old male C3H mouse (CHARLES RIVER LABORATORIES JAPAN, INC.), covered with aseptic gauze and bandaged. The bandage was removed at day 6 from the transplantation, and the graft was observed every day up to rejection. The rejection of the skin graft was determined to be the time point when 90% or more of the epithelium of the graft turned brown due to necrosis. The number of days from the transplantation to the rejection was taken as the survival time of the graft. The compound of the present invention or a pharmaceutically acceptable salt thereof was suspended or dissolved in 0.5% carboxymethylcellulose, and repetitively administered orally at a dose of 0.3-100 mg/kg body weight once a day for 14 days from the day of transplantation. As for the graft survival time, generalized Wilcoxon test analysis was performed using the group administered with vehicle alone as a control, and the multiplicity was adjusted by the Holm's method, wherein p value of 0.05 or below was determined to be significant.

[7] = test system: Experimental Autoimmune Encephalomyelitis in SJL/J Mouse; assay: Experimental autoimmune encephalomyelitis in SJL/J mouse; format: in vivo; conditions: 30 mg/kg oral, 3 weeks from immunization; average EAE score at 14 days after immunization; P <0.05
Experimental: The 139th-151st peptides (50 μg) of rat-derived proteolipid protein (manufactured by Bachem) was mixed with complete Freund's adjuvant containing killed tuberculosis H37Ra. Using the resulting emulsion, 10-week-old female SJL/J mice (CHARLES RIVER LABORATORIES JAPAN, INC.) were subcutaneously immunized on the back, whereby experimental autoimmune encephalomyelitis (EAE) was developed. The compound of the present invention or a pharmaceutically acceptable salt thereof was suspended or dissolved in 0.5% carboxymethylcellulose (manufactured by Sigma-Aldrich Ltd.), and repetitively administered orally at a dose of 3-30 mg/kg body weight using an oral gavage needle for 3 weeks from the day of immunization. As to this model, the symptoms of EAE were evaluated based on the following judgment criteria using the scores of from 0 to 5.
As regards the EAE score, each group (n=10) was evaluated using an average value and mean error, with a group administered only with a vehicle being control, and Mann-Whitney U test was used for statistical analysis, wherein p value of 0.05 or below was determined to be significant. In the following, the suppressive action of the compound of the present invention on EAE is shown by the suppressing rate (%) calculated from the average EAE score at 14 days after the immunization. […] From the results, the compound is considered effective for encephalomyelitis, multiple sclerosis and the like.

[8] = po, read-out: suppressing rate (%) of arthritis score

Structure (SMILES): COC(=O)C[C@@H]1N=C(c2ccc(Cl)cc2)c2c(sc(C)c2C)-n2c(C)nnc21 [Example 1, Methyl (S)-{4-(4-chlorophenyl)-2,3,9-trimethyl-6H-thieno[3,2-f][1,2,4]triazolo[4,3-a][1,4]diazepin-6-yl}acetate]
- IC50 [1]: 38 nM
- CD28-dependent T cell growth suppressive action (in words) [1]: have a CD28-dependent T cell growth suppressive action
- urine protein score (mean ± SE) ([2]; 1 mg/kg oral): 1.8 ± 0.3
- urine protein score (mean ± SE) ([2]; 3 mg/kg oral): 1.6 ± 0.2
- effect on urine protein score (in words) ([2]; at not less than 1 mg/kg, oral for 4 weeks, compared to the control group): significantly decreased the urine protein score
- inhibition in vivo at 3 mg/kg [3, 8]: 66.1%

Structure (SMILES): COC(=O)C[C@@H]1N=C(c2ccc(-c3ccc(OC)cc3)cc2)c2c(sc(CO)c2C)-n2c(C)nnc21 [Example 234, Methyl (S)-{2-hydroxymethyl-4-(4′-methoxybiphenyl-4-yl)-3,9-dimethyl-6H-thieno[3,2-f][1,2,4]triazolo[4,3-a][1,4]diazepin-6-yl}acetate]
- median survival time [4]: 32 days
- suppressing rate (%) of auricular edema [5]: 35.8%
- suppressive action on edema (in words) [5]: significant suppressive action on edema
- IC50 [1]: 97 nM
- CD28-dependent T cell growth suppressive action (in words) [1]: have a CD28-dependent T cell growth suppressive action
- inhibition in vivo at 3 mg/kg ([3]; 3 mg/kg oral, 2 weeks from booster, average arthritis score at 35 days after primary immunization, P <0.05, read-out: suppressing rate (%) of arthritis score): 53.6%
- median survival time of skin graft ([6]; 30 mg/kg oral once a day for 14 days, P 0.13): 11 days
- effect on graft survival time (in words) ([6]; 100 mg/kg): significantly prolonged the graft survival time
- median survival time of skin graft ([6]; 100 mg/kg oral once a day for 14 days, P <0.05): 14 days

Structure (SMILES): Cc1sc2c(c1C)C(c1ccc(NCc3ccccc3)cc1)=NCc1nnc(C)n1-2 [Example 335, 4-(4-benzylaminophenyl)-2,3,9-trimethyl-6H-thieno[3,2-f][1,2,4]triazolo[4,3-a][1,4]diazepine]
- median survival time [4]: 36.5 days
- suppressing rate (%) of auricular edema [5]: 45.1%
- suppressive action on edema (in words) [5]: significant suppressive action on edema
- IC50 [1]: 190 nM
- CD28-dependent T cell growth suppressive action (in words) [1]: have a CD28-dependent T cell growth suppressive action
- inhibition in vivo at 10 mg/kg [3, 8]: 65.5%
- suppressing rate (%) of EAE score [7]: 53%
